Assay: Stability of cannabinoid and Vitamin E components of Beverage 2 (AB Red) stored at 8° C. and 21-25° C., LCMSMS over 570 days
Method: The LCMSMS was calibrated for 0-50 ng/ml cannabinoids with the same resin material used in the preparation of the concentrates. At each time period, 100 μml of beverage was diluted with 10 ml of methanol and injected into the LCMSMS for analysis.

Cc1c(C)c2c(c(C)c1O)CC[C@@](C)(CCC[C@H](C)CCC[C@H](C)CCCC(C)C)O2 [α-Tocopherol]
Stability of Vitamin Es in AB Red (8° C., 26 days): 25.2 µg/mL
Stability of Vitamin Es in AB Red (8° C., 29 days): 23.5 µg/mL
Stability of Vitamin Es in AB Red (8° C., 30 days): 24.2 µg/mL
Stability of Vitamin Es in AB Red (8° C., 60 days): 24.2 µg/mL
Stability of Vitamin Es in AB Red (8° C., 90 days): 23.1 µg/mL
Stability of Vitamin Es in AB Red (8° C., 120 days): 25.2 µg/mL
Stability of Vitamin Es in AB Red (8° C., 150 days): 25.4 µg/mL
Stability of Vitamin Es in AB Red (8° C., 180 days): 23.6 µg/mL
Stability of Vitamin Es in AB Red (8° C., 210 days): 23.5 µg/mL
Stability of Vitamin Es in AB Red (8° C., 240 days): 23.6 µg/mL
Stability of Vitamin Es in AB Red (8° C., 270 days): 23.6 µg/mL
Stability of Vitamin Es in AB Red (8° C., 300 days): 23.1 µg/mL
Stability of Vitamin Es in AB Red (8° C., 330 days): 22.9 µg/mL
Stability of Vitamin Es in AB Red (8° C., 390 days): 23.1 µg/mL
Stability of Vitamin Es in AB Red (8° C., 420 days): 22.3 µg/mL
Stability of Vitamin Es in AB Red (8° C., 450 days): 22.7 µg/mL
Stability of Vitamin Es in AB Red (8° C., 480 days): 21.8 µg/mL
Stability of Vitamin Es in AB Red (8° C., 510 days): 22.0 µg/mL
Stability of Vitamin Es in AB Red (8° C., 540 days): 21.8 µg/mL
Stability of Vitamin Es in AB Red (8° C., 570 days): 21.5 µg/mL
Stability of Vitamin Es in AB Red (21-25° C., 0 days): 25.3 µg/mL
Stability of Vitamin Es in AB Red (21-25° C., 1 days): 24.4 µg/mL
Stability of Vitamin Es in AB Red (21-25° C., 2 days): 24.1 µg/mL
Stability of Vitamin Es in AB Red (21-25° C., 3 days): 23.8 µg/mL
Stability of Vitamin Es in AB Red (21-25° C., 5 days): 22.9 µg/mL
Stability of Vitamin Es in AB Red (21-25° C., 8 days): 24.5 µg/mL
Stability of Vitamin Es in AB Red (21-25° C., 9 days): 23.3 µg/mL
Stability of Vitamin Es in AB Red (21-25° C., 10 days): 23.0 µg/mL
Stability of Vitamin Es in AB Red (21-25° C., 11 days): 24.4 µg/mL
Stability of Vitamin Es in AB Red (21-25° C., 12 days): 23.4 µg/mL
Stability of Vitamin Es in AB Red (21-25° C., 15 days): 24.8 µg/mL
Stability of Vitamin Es in AB Red (21-25° C., 16 days): 25.1 µg/mL
Stability of Vitamin Es in AB Red (21-25° C., 17 days): 24.4 µg/mL
Stability of Vitamin Es in AB Red (21-25° C., 18 days): 24.9 µg/mL
Stability of Vitamin Es in AB Red (21-25° C., 19 days): 25.4 µg/mL
Stability of Vitamin Es in AB Red (21-25° C., 22 days): 25.4 µg/mL
Stability of Vitamin Es in AB Red (21-25° C., 23 days): 24.6 µg/mL
Stability of Vitamin Es in AB Red (21-25° C., 24 days): 23.5 µg/mL
Stability of Vitamin Es in AB Red (21-25° C., 25 days): 25.5 µg/mL
Stability of Vitamin Es in AB Red (21-25° C., 26 days): 24.3 µg/mL
Stability of Vitamin Es in AB Red (21-25° C., 29 days): 24.4 µg/mL
Stability of Vitamin Es in AB Red (21-25° C., 30 days): 24.6 µg/mL
Stability of Vitamin Es in AB Red (21-25° C., 60 days): 24.4 µg/mL
Stability of Vitamin Es in AB Red (21-25° C., 90 days): 24.3 µg/mL
Stability of Vitamin Es in AB Red (21-25° C., 120 days): 23.7 µg/mL
Stability of Vitamin Es in AB Red (21-25° C., 150 days): 23.4 µg/mL
Stability of Vitamin Es in AB Red (21-25° C., 180 days): 23.3 µg/mL
Stability of Vitamin Es in AB Red (21-25° C., 210 days): 22.7 µg/mL
Stability of Vitamin Es in AB Red (21-25° C., 240 days): 23.1 µg/mL
Stability of Vitamin Es in AB Red (21-25° C., 270 days): 23.1 µg/mL
Stability of Vitamin Es in AB Red (21-25° C., 300 days): 23.5 µg/mL
Stability of Vitamin Es in AB Red (21-25° C., 330 days): 22.6 µg/mL
Stability of Vitamin Es in AB Red (21-25° C., 390 days): 22.7 µg/mL
Stability of Vitamin Es in AB Red (21-25° C., 420 days): 22.5 µg/mL
Stability of Vitamin Es in AB Red (21-25° C., 450 days): 22.3 µg/mL
Stability of Vitamin Es in AB Red (21-25° C., 480 days): 21.6 µg/mL
Stability of Vitamin Es in AB Red (21-25° C., 510 days): 21.4 µg/mL
Stability of Vitamin Es in AB Red (21-25° C., 540 days): 21.0 µg/mL
Stability of Vitamin Es in AB Red (21-25° C., 570 days): 21.4 µg/mL

Reference: US20240415914A1, “Water Dispersible Cannabinoid Compositions” (priority 2021, published 2024)
